From the CheMixHub viscosity set
± gives the uncertainty stated by the source.

Test: xn = mol fraction of the nth substance listed

CCOCCO + OCCOCCOCCO
101 kPa
Conditions	viscosity [mPa·s]
293.15 K, x1 = 0.0493	36.7 ± 0.23
293.15 K, x1 = 0.1039	32.11 ± 0.2
293.15 K, x1 = 0.1964	25.21 ± 0.15
293.15 K, x1 = 0.3004	18.99 ± 0.12
293.15 K, x1 = 0.3949	14.53 ± 0.087
293.15 K, x1 = 0.4468	12.49 ± 0.074
293.15 K, x1 = 0.5005	10.66 ± 0.063
293.15 K, x1 = 0.5512	9.194 ± 0.055
293.15 K, x1 = 0.6003	7.883 ± 0.047
293.15 K, x1 = 0.7017	5.752 ± 0.035
293.15 K, x1 = 0.7946	4.246 ± 0.027
293.15 K, x1 = 0.9032	2.957 ± 0.018
293.15 K, x1 = 0.941	2.603 ± 0.016
298.15 K, x1 = 0.0425	31.4 ± 0.2
298.15 K, x1 = 0.1132	26.58 ± 0.17
298.15 K, x1 = 0.198	21.56 ± 0.13
298.15 K, x1 = 0.2956	16.85 ± 0.1
298.15 K, x1 = 0.3992	12.84 ± 0.077
298.15 K, x1 = 0.4535	11.09 ± 0.066
298.15 K, x1 = 0.5008	9.696 ± 0.058
298.15 K, x1 = 0.5433	8.635 ± 0.052
298.15 K, x1 = 0.5935	7.463 ± 0.045
298.15 K, x1 = 0.69	5.545 ± 0.034
298.15 K, x1 = 0.8038	3.871 ± 0.024
298.15 K, x1 = 0.8966	2.774 ± 0.017
298.15 K, x1 = 0.95	2.248 ± 0.014
303.15 K, x1 = 0.0543	26.39 ± 0.17
303.15 K, x1 = 0.0954	24.22 ± 0.15
303.15 K, x1 = 0.2034	19.01 ± 0.12
303.15 K, x1 = 0.2991	15.11 ± 0.092
303.15 K, x1 = 0.4003	11.78 ± 0.071
303.15 K, x1 = 0.4492	10.39 ± 0.063
303.15 K, x1 = 0.5007	9.084 ± 0.055
303.15 K, x1 = 0.5429	8.086 ± 0.049
303.15 K, x1 = 0.5978	6.967 ± 0.043
303.15 K, x1 = 0.6987	5.187 ± 0.033
303.15 K, x1 = 0.8008	3.732 ± 0.023
303.15 K, x1 = 0.9005	2.597 ± 0.016
303.15 K, x1 = 0.95	2.081 ± 0.013

CC(C)CCO + OCc1ccccc1
viscosity [mPa·s], 101 kPa
Conditions	x1 = 0.0955	x1 = 0.1908	x1 = 0.2853	x1 = 0.3812	x1 = 0.4814	x1 = 0.5847	x1 = 0.6842	x1 = 0.7879	x1 = 0.8921
293.15 K	6.28 ± 0.13	6.27 ± 0.13	6.26 ± 0.13	6.18 ± 0.13	6.07 ± 0.13	5.86 ± 0.12	5.58 ± 0.12	5.23 ± 0.11	4.86 ± 0.1
298.15 K	5.53 ± 0.11	5.51 ± 0.11	5.49 ± 0.11	5.42 ± 0.11	5.31 ± 0.11	5.11 ± 0.11	4.85 ± 0.1	4.53 ± 0.1	4.19 ± 0.09
303.15 K	4.64 ± 0.1	4.63 ± 0.1	4.62 ± 0.1	4.58 ± 0.1	4.49 ± 0.09	4.37 ± 0.09	4.19 ± 0.09	3.94 ± 0.08	3.64 ± 0.08
308.15 K	3.96 ± 0.08	3.92 ± 0.08	3.89 ± 0.08	3.86 ± 0.08	3.81 ± 0.08	3.7 ± 0.08	3.53 ± 0.07	3.28 ± 0.07	3 ± 0.06
313.15 K	3.48 ± 0.07	3.44 ± 0.07	3.39 ± 0.07	3.36 ± 0.07	3.31 ± 0.07	3.22 ± 0.07	3.1 ± 0.07	2.95 ± 0.06	2.71 ± 0.06
318.15 K	3.05 ± 0.06	3 ± 0.06	2.95 ± 0.06	2.89 ± 0.06	2.83 ± 0.06	2.74 ± 0.06	2.63 ± 0.06	2.49 ± 0.05	2.3 ± 0.05

CC(CC(C)(C)C)CP(=O)(O)CC(C)CC(C)(C)C (stereo not drawn) + c1ccccc1
298.15 K, 101 kPa
Conditions	viscosity [mPa·s]
x1 = 0.0058	0.631 ± 0.007
x1 = 0.0104	0.661 ± 0.008
x1 = 0.0122	0.678 ± 0.008
x2 = 0.1178	93.82 ± 1.4
x2 = 0.2304	71.32 ± 0.9
x2 = 0.3732	46.06 ± 0.54
x2 = 0.5517	20.77 ± 0.24
x2 = 0.6956	8.438 ± 0.098
x2 = 0.784	4.43 ± 0.051
x2 = 0.7966	4.061 ± 0.047
x2 = 0.8411	2.952 ± 0.034
x2 = 0.8809	2.165 ± 0.025
x2 = 0.8838	2.106 ± 0.024
x2 = 0.9333	1.332 ± 0.015
x2 = 0.9375	1.29 ± 0.015
x2 = 0.9656	0.94 ± 0.011
x2 = 0.9738	0.83 ± 0.01

CCOCCO + c1ccccc1
viscosity [mPa·s], 101 kPa
Conditions	298.15 K	308.15 K
x1 = 0.0585	0.632 ± 0.011	0.548 ± 0.01
x1 = 0.1533	0.686 ± 0.012	0.587 ± 0.011
x1 = 0.2518	0.752 ± 0.013	0.635 ± 0.011
x1 = 0.3637	0.841 ± 0.014	0.7 ± 0.012
x1 = 0.4521	0.923 ± 0.016	0.76 ± 0.013
x1 = 0.5048	0.979 ± 0.016	0.8 ± 0.014
x1 = 0.5525	1.034 ± 0.017	0.839 ± 0.015
x1 = 0.6521	1.164 ± 0.019	0.931 ± 0.016
x1 = 0.7508	1.317 ± 0.022	1.039 ± 0.018
x1 = 0.8521	1.505 ± 0.024	1.17 ± 0.02
x1 = 0.9547	1.734 ± 0.028	1.328 ± 0.022

CNC(C)=O + c1ccccc1
308.15 K, 101.33 kPa
Conditions	viscosity [mPa·s]
x1 = 0.0294	0.4955 ± 0.0046
x1 = 0.226	0.8005 ± 0.0071
x1 = 0.3331	1.021 ± 0.009
x1 = 0.437	1.255 ± 0.011
x1 = 0.5349	1.51 ± 0.014
x1 = 0.6329	1.78 ± 0.016
x1 = 0.7301	2.099 ± 0.02
x1 = 0.823	2.452 ± 0.023
x1 = 0.9747	3.132 ± 0.031

N#C[C-](C#N)C#N.OCCC[n+]1ccccc1 + c1ccsc1
101 kPa
Conditions	viscosity [mPa·s]
298.15 K, x1 = 0.5955	36.55 ± 3.7
313.15 K, x1 = 0.9377	39.55 ± 4
